System: HepG2 cells
Experiment: Cellular Ru uptake by HepG2 cells (ICP-MS)
Format: cell-based, human
Conditions: HepG2, 60 μM Ru, 24 h; B2 vs B1
Protocol: Human hepatoma (HepG2) cells were originally received from the American Type Culture Collection (ATCC, Cat. No. HB-8065) and cultured as described previously. This cell line was used for Tf-dependent metal uptake studies because of the high expression levels of human TfR1 [43]. For treatments, the cells were grown to confluence in 24-well plates, using Advanced DMEM (Dulbecco’s modified Eagle’s minimal essential medium, Invitrogen Cat. No. 12491-015), supplemented with L-glutamine (2.0 mM), antibiotic-antimycotic mixture (100 mg mL^−1 penicillin, 100 mg mL^−1 steptomycin and 0.25 mg mL^−1 amphotericin B) and fetal calf serum (heat-inactivated, 2% v/v). Confluent cell layers were washed with serum-free treatment medium (DMEM, Invitrogen Cat. No. 19938-025), supplemented with glutamine, antibiotic-antimycotic mixture and 1.0 mg mL^−1 AlbuMax (Gibco Cat. No. 11020-021). […] After washing, the wells were filled with the treatment medium containing metal additions (detailed in B1–B9 of Table 1). The treatment media were sterilized by filtration through 0.2 µm membrane filters, and pre-equilibrated for 24 h at 310 K and 5% CO2 prior to the addition to cells, except for sample B1 that was used immediately after preparation. All the treatments were performed in triplicate, using random well positions to avoid experimental bias.
After 24 h incubation with the treatment media (B1–B9 in Table 1), the medium from each well was collected for the determination of Ru–protein binding and BLI analyses, and the wells were washed twice with PBS (0.50 mL/well). […]
The values of metal uptake were normalized using protein content in cell lysates. For protein determination, Bradford reagent (Sigma Cat. No B6916; 98 µL) was mixed with a small aliquot (2.0 µL) of each cell lysate, and the absorbance at 600 nm was measured using a Victor V3 plate reader. […] The test and calibration samples were analyzed in triplicate. […]

## [Cl-].[Cl-].[Cl-].[Cl-].[Ru+3].c1ccc2[nH][nH+]cc2c1.c1ccc2[nH]ncc2c1.c1ccc2[nH]ncc2c1 [KP1019, (IndH)[Ru^IIICl4(Ind)2]]
  Decrease in Ru uptake after decomposition in cell culture medium for 24 h prior to addition to cells, vs fresh solution: ~ 30 fold

— article PMC9496346, “Controversial Role of Transferrin in the Transport of Ruthenium Anticancer Drugs” (Biomolecules, 2022)
